# Measurements reported in ChEMBL document CHEMBL1132225, “Novel antidiabetic and hypolipidemic agents. 3. Benzofuran-containing thiazolidinediones” (J Med Chem, 1999).
# The source made the active and inactive calls. The rule behind the calls is not given here.
# What was measured:
# Mus musculus [1] = species on record: Mus musculus; test: Percent reduction of plasma glucose after 6 days of treatment (various doses).; assay type: functional
# Mus musculus [2] = test: Percent reduction of plasma glucose (PG) after 6 days of treatment. It is the mean of standard deviation observed in plasma glucose (PG) in db/db mice at dose of 200 mg/kg/day; assay type: functional; details: route oral
# Mus musculus [3] = species on record: Mus musculus; test: The compound was tested for percent reduction of plasma triglyceride after 6 days of treatment.; assay type: functional; set-up: concentration or dose not given beside the values
# Mus musculus [4] = test: Percent reduction of plasma glucose (PG) after 6 days of treatment. It is the mean of standard deviation observed in plasma glucose (PG) in db/db mice at dose of 30 mg/kg/day; assay type: functional; details: route oral
# Mus musculus [5] = test: Percent reduction in plasma triglyceride (TG) after 6 days of treatment. It is the mean of standard deviation observed in plasma triglyceride (TG) in db/db mice at dose of 30 mg/kg/day; assay type: functional; details: route oral
# Mus musculus [6] = species on record: Mus musculus; test: The compound was tested for percent reduction of plasma triglyceride after 6 days of treatment; Not Active; assay type: functional, organism-based
# Mus musculus [7] = test: Percent reduction in plasma triglyceride (TG) after 6 days of treatment. It is the mean of standard deviation observed in plasma triglyceride (TG) in db/db mice at dose of 200 mg/kg/day; NA = Not Active; assay type: functional, organism-based
# Mus musculus [8] = test: Percent reduction of plasma glucose (PG) after 6 days of treatment. It is the mean of standard deviation observed in plasma glucose (PG) in db/db mice at dose of 100 mg/kg/day; assay type: functional; details: route oral
# Mus musculus [9] = test: Percent reduction in plasma triglyceride (TG) after 6 days of treatment. It is the mean of standard deviation observed in plasma triglyceride (TG) in db/db mice at dose of 100 mg/kg/day; NA = Not Active; assay type: functional
# Mus musculus [10] = species on record: Mus musculus; test: The compound was tested for percent reduction of plasma triglyceride after 6 days of treatment; not active; assay type: functional, organism-based
# [11] = target: T1, Peroxisome proliferator-activated receptor alpha (Homo sapiens) (UniProt Q07869); test: The fold activation against 50 u M Peroxisome proliferator activated receptor alpha(amino acids 167-468)
# T1 sequence (whole entry): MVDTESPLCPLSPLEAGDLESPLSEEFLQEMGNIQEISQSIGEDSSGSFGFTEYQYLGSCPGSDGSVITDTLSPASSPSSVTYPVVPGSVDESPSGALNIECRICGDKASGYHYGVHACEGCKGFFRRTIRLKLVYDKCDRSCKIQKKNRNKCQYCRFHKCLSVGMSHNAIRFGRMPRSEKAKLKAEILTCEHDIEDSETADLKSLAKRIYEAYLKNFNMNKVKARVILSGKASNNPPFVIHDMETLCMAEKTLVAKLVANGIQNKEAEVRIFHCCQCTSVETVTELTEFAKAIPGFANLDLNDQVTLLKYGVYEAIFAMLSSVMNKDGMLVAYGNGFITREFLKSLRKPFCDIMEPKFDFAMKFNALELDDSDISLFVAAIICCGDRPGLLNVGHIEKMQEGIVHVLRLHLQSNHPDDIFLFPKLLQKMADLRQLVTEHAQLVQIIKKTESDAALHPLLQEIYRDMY
# [12] = target: T2, Peroxisome proliferator-activated receptor gamma (Homo sapiens) (UniProt P37231); test: The fold activation against 1 amino acids 174-475)
# T2 sequence (whole entry): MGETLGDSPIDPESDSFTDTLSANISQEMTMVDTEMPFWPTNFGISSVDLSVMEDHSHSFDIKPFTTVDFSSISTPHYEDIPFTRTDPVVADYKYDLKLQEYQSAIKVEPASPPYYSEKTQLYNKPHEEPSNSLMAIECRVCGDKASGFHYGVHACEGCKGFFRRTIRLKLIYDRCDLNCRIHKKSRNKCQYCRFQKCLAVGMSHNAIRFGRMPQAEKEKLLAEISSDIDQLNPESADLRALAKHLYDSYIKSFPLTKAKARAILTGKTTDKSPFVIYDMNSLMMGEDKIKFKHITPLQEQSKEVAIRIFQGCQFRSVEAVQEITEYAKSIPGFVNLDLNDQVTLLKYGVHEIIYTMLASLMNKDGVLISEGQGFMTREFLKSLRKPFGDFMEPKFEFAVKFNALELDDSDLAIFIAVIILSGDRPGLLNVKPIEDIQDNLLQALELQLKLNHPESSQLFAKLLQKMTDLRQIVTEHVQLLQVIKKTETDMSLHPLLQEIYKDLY
# [13] = target: T1, Peroxisome proliferator-activated receptor alpha (Homo sapiens); test: Compound was tested for fold transactivation of human Peroxisome proliferator activated receptor alpha at 50 uM
SMILES,Reduction (Mus musculus [1]) [%],PG (Mus musculus [2]) [%],Reduction (Mus musculus [3]) [%],Reduction (Mus musculus [6]),PG (Mus musculus [8]) [%],Fold activation [11],Fold activation [12],Transactivation [13] [fold],other results
Cc1c(C)c2c(c(C)c1O)C(CN(C)CCOc1ccc(CC3SC(=O)NC3=O)cc1)C(C)(C)O2 (configuration not stated),19,19,–,–,–,–,–,–,–
Cc1c(C)c2c(c(C)c1OCc1ccccc1)C(CN1CCC[C@H]1COc1ccc(/C=C3\SC(=O)NC3=O)cc1)C(C)(C)O2.Cl (some centres not stated),25,–,57,–,–,–,–,–,PG (Mus musculus [4]): 25%; TG (Mus musculus [5]): 57%
Cc1c(C)c2c(c(C)c1OCc1ccccc1)C(CN(C)CCOc1ccc(/C=C3\SC(=O)NC3=O)cc1)C(C)(C)O2 (configuration not stated),23,23,–,inactive,–,–,–,–,TG (Mus musculus [7]): inactive
Cc1oc2c(C)c(C)c(OCc3ccccc3)c(C)c2c1CN1CCC[C@H]1COc1ccc(/C=C2\SC(=O)NC2=O)cc1,50,–,–,inactive,50,–,–,–,TG (Mus musculus [9]): inactive
Cc1c(C)c2c(c(C)c1OCc1ccccc1)C(COc1ccc(/C=C3\SC(=O)NC3=O)cc1)C(C)(C)O2 (configuration not stated),10,10,–,–,–,–,–,–,Reduction (Mus musculus [10]): inactive; TG (Mus musculus [7]): inactive
Cc1c(C)c2c(c(C)c1O)C(CN1CCC[C@H]1COc1ccc(/C=C3\SC(=O)NC3=O)cc1)C(C)(C)O2 (some centres not stated),19,–,–,inactive,19,0.28,0.84,0.28,TG (Mus musculus [9]): inactive
Cc1c(C)c2c(c(C)c1O)C(CN(C)CCOc1ccc(/C=C3\SC(=O)NC3=O)cc1)C(C)(C)O2 (configuration not stated),28,–,76,–,28,–,–,–,TG (Mus musculus [9]; route oral): 76%
Cc1c(C)c2c(c(C)c1OCc1ccccc1)C(CN1CCC[C@H]1COc1ccc(/C=C3\SC(=O)NC3=O)cc1)C(C)(C)O2 (some centres not stated),–,–,–,–,–,0.43,1.03,0.43,–
Cc1c(C)c2c(c(C)c1O)C(COc1ccc(CC3SC(=O)NC3=O)cc1)C(C)(C)O2 (configuration not stated),12,–,31,–,–,–,–,–,–
Cc1c(C)c2c(c(C)c1OCc1ccccc1)C(CN1CCC[C@H]1COc1ccc(CC3SC(=O)NC3=O)cc1)C(C)(C)O2 (some centres not stated),–,–,–,–,–,0.33,0.17,0.33,–
